Values of other authors, collected in patent EP2042172A1, “Use of tocopherol derivatives as inhibitors of the notch signalling pathway” (Inserm, priority 2007, dated 2009).

Tested on: axonal growth
Settings: even in the presence of inhibitory signals (Hanbali et al., 2004); cited from earlier work

CC1=C(CCCCCCCCCCCCCCCO)C(C)(C)CCC1=O [tCFA15]
axonal growth in vitro: promote axonal growth in vitro
